± gives the uncertainty stated by the source.
Assay: xn = mol fraction of the nth substance listed

C=CC#N + C1CCCCC1
307.4 K, 101.33 kPa
Conditions	viscosity [mPa·s]
x2 = 0.0861	0.66 ± 0.01
x2 = 0.2848	0.53 ± 0.01
x2 = 0.5332	0.419 ± 0.004
x2 = 0.544	0.396 ± 0.004
x2 = 0.7114	0.359 ± 0.003
x2 = 0.8989	0.318 ± 0.003

CCCCN(CCCC)CCCC + C1CCCCC1
viscosity [mPa·s], 101 kPa
Conditions	303.15 K	313.15 K
x1 = 0.0103	0.8168 ± 0.0056	0.7154 ± 0.0051
x1 = 0.0216	0.816 ± 0.0056	0.7139 ± 0.0051
x1 = 0.03178	0.8153 ± 0.0056	0.7132 ± 0.0051
x1 = 0.04023	0.8141 ± 0.0056	0.7121 ± 0.0051
x1 = 0.05159	0.8132 ± 0.0057	0.7111 ± 0.0051
x1 = 0.05978	0.8121 ± 0.0057	0.7102 ± 0.0051
x1 = 0.0709	0.8113 ± 0.0057	0.709 ± 0.0051
x1 = 0.0807	0.81 ± 0.0057	0.7078 ± 0.0051
x1 = 0.08607	0.8086 ± 0.0057	0.7065 ± 0.0051
x2 = 0.1133	1.125 ± 0.023	–
x2 = 0.1972	1.125 ± 0.023	–
x2 = 0.402	1.021 ± 0.021	–
x2 = 0.499	0.987 ± 0.02	–
x2 = 0.5952	0.951 ± 0.019	–
x2 = 0.7042	0.911 ± 0.018	–
x2 = 0.8018	0.875 ± 0.018	–
x2 = 0.9005	0.845 ± 0.017	–

CC(C)(C)Cl + C1CCOC1
101 kPa
Conditions	viscosity [mPa·s]
298.15 K, x2 = 0.0634	0.4743 ± 0.0055
298.15 K, x2 = 0.1288	0.4733 ± 0.0055
298.15 K, x2 = 0.2423	0.4718 ± 0.0054
298.15 K, x2 = 0.3198	0.4705 ± 0.0054
298.15 K, x2 = 0.4555	0.4684 ± 0.0053
298.15 K, x2 = 0.5341	0.4673 ± 0.0053
298.15 K, x2 = 0.6598	0.4656 ± 0.0052
298.15 K, x2 = 0.7441	0.4647 ± 0.0052
298.15 K, x2 = 0.8407	0.4639 ± 0.0052
298.15 K, x2 = 0.8916	0.4636 ± 0.0052
298.15 K, x2 = 0.961	0.4633 ± 0.0051
313.15 K, x2 = 0.0557	0.3913 ± 0.0052
313.15 K, x2 = 0.0959	0.3917 ± 0.0051
313.15 K, x2 = 0.1963	0.3928 ± 0.0051
313.15 K, x2 = 0.296	0.3935 ± 0.0051
313.15 K, x2 = 0.3892	0.394 ± 0.0051
313.15 K, x2 = 0.521	0.3945 ± 0.005
313.15 K, x2 = 0.5951	0.3946 ± 0.005
313.15 K, x2 = 0.6368	0.3947 ± 0.005
313.15 K, x2 = 0.8089	0.3951 ± 0.0049
313.15 K, x2 = 0.9009	0.3959 ± 0.0049
313.15 K, x2 = 0.9526	0.3968 ± 0.0049

CC(C)(N)CO + C1CNCCN1
viscosity [mPa·s], 101 kPa
Conditions	x2 = 0.02	x2 = 0.04	x2 = 0.06	x2 = 0.08	x2 = 0.1	x2 = 0.12	x2 = 0.14	x2 = 0.16	x2 = 0.18
303.15 K	95.41 ± 4	91.27 ± 3.8	86.75 ± 3.6	83 ± 3.4	79.54 ± 3.3	76.81 ± 3.2	74.64 ± 3.1	71.81 ± 2.9	71 ± 2.9
313.15 K	43.72 ± 1.8	41.54 ± 1.7	38.97 ± 1.6	37.34 ± 1.5	36.06 ± 1.5	35.06 ± 1.4	34.1 ± 1.4	33.76 ± 1.4	33.69 ± 1.4
323.15 K	24.41 ± 1	23.46 ± 0.96	22.58 ± 0.93	21.64 ± 0.89	20.53 ± 0.84	19.63 ± 0.81	18.74 ± 0.77	17.8 ± 0.73	17.07 ± 0.7

[2H]O[2H] + C1COCCO1
viscosity [mPa·s], 101 kPa
Conditions	303.1 K	313.1 K	323.1 K
x1 = 0.1561	1.112 ± 0.018	0.944 ± 0.016	0.817 ± 0.014
x1 = 0.1831	1.154 ± 0.018	0.972 ± 0.016	0.831 ± 0.014
x1 = 0.3467	1.317 ± 0.02	1.092 ± 0.017	0.918 ± 0.015
x1 = 0.522	1.585 ± 0.024	1.289 ± 0.02	1.06 ± 0.017
x1 = 0.5977	1.728 ± 0.025	1.378 ± 0.021	1.128 ± 0.018
x1 = 0.6534	1.836 ± 0.027	1.447 ± 0.022	1.172 ± 0.018
x1 = 0.7431	1.968 ± 0.029	1.529 ± 0.023	1.233 ± 0.019
x1 = 0.8126	1.959 ± 0.029	1.52 ± 0.023	1.213 ± 0.019
x1 = 0.8683	1.754 ± 0.026	1.367 ± 0.021	1.098 ± 0.017
x1 = 0.9108	1.528 ± 0.023	1.199 ± 0.019	0.97 ± 0.016
x1 = 0.9466	1.321 ± 0.021	1.047 ± 0.017	0.853 ± 0.015
x1 = 0.9747	1.131 ± 0.018	0.905 ± 0.015	0.742 ± 0.013

CCCCC(C)CC (configuration not stated) + C1C[C@@H]2[C@H]3CC[C@H](C3)[C@@H]2C1
viscosity [mPa·s], 100 kPa
Conditions	x2 = 0.0994	x2 = 0.2004	x2 = 0.2996	x2 = 0.4001	x2 = 0.5008	x2 = 0.5973	x2 = 0.6998	x2 = 0.8016	x2 = 0.8999
293.15 K	0.577 ± 0.013	0.657 ± 0.014	0.755 ± 0.016	0.882 ± 0.019	1.044 ± 0.023	1.249 ± 0.027	1.521 ± 0.033	1.882 ± 0.041	2.336 ± 0.051
298.15 K	0.547 ± 0.012	0.62 ± 0.013	0.708 ± 0.015	0.824 ± 0.018	0.971 ± 0.021	1.154 ± 0.025	1.399 ± 0.031	1.722 ± 0.038	2.125 ± 0.046
303.15 K	0.519 ± 0.011	0.589 ± 0.013	0.667 ± 0.014	0.772 ± 0.017	0.905 ± 0.02	1.065 ± 0.023	1.294 ± 0.028	1.585 ± 0.035	1.945 ± 0.043
308.15 K	0.495 ± 0.011	0.557 ± 0.012	0.63 ± 0.014	0.726 ± 0.016	0.848 ± 0.018	1 ± 0.022	1.201 ± 0.026	1.457 ± 0.032	1.788 ± 0.039
313.15 K	0.472 ± 0.01	0.53 ± 0.012	0.597 ± 0.013	0.685 ± 0.015	0.796 ± 0.017	0.935 ± 0.02	1.118 ± 0.024	1.357 ± 0.03	1.65 ± 0.036

CCCCN(CCCC)CCCC + C=C(C)C(=O)OC
303.15 K, 101 kPa
Conditions	viscosity [mPa·s]
x2 = 0.21	0.9849 ± 0.0085
x2 = 0.3945	0.8491 ± 0.0076
x2 = 0.4886	0.7874 ± 0.0073
x2 = 0.6041	0.7144 ± 0.0068
x2 = 0.7985	0.6078 ± 0.0062

COC(C)OC + CC1COC(=O)O1
298.15 K, 101 kPa
Conditions	viscosity [mPa·s]
x2 = 0.1205	4.91
x2 = 0.2621	6.2
x2 = 0.3779	7.53
x2 = 0.4836	9.05 ± 4
x2 = 0.7185	13.82 ± 4

C=CC#N + CC#N
303.15 K, 101.3 kPa
Conditions	viscosity [mPa·s]
x1 = 0.0965	0.3219 ± 0.0031
x1 = 0.2002	0.3193 ± 0.0031
x1 = 0.2977	0.3185 ± 0.0031
x1 = 0.3966	0.3178 ± 0.0031
x1 = 0.4928	0.3169 ± 0.003
x1 = 0.5983	0.3154 ± 0.003
x1 = 0.6941	0.3147 ± 0.003
x1 = 0.7977	0.3136 ± 0.003
x1 = 0.8997	0.3124 ± 0.003

CCC(C)(C)O + CC#N
298.15 K, 101 kPa
Conditions	viscosity [mPa·s]
x1 = 0.1002	0.387 ± 0.059
x1 = 0.1989	0.45 ± 0.066
x1 = 0.2988	0.543 ± 0.077
x1 = 0.3988	0.667 ± 0.09
x1 = 0.4964	0.832 ± 0.11
x1 = 0.6004	1.069 ± 0.14
x1 = 0.6969	1.375 ± 0.17
x1 = 0.7994	1.832 ± 0.22
x1 = 0.8983	2.493 ± 0.29
x1 = 0.958	3.032 ± 0.35

CN(C)c1ccccc1 + CC(=O)CC(C)C
viscosity [mPa·s], 101 kPa
Conditions	303.15 K	308.15 K
x1 = 0.0745	0.632 ± 0.025	0.557 ± 0.023
x1 = 0.1256	0.711 ± 0.028	0.628 ± 0.025
x1 = 0.1856	0.8 ± 0.031	0.711 ± 0.028
x1 = 0.2652	0.906 ± 0.034	0.813 ± 0.031
x1 = 0.3202	0.971 ± 0.036	0.875 ± 0.033
x1 = 0.4012	1.052 ± 0.039	0.953 ± 0.036
x1 = 0.4852	1.108 ± 0.041	1.013 ± 0.038
x1 = 0.5612	1.143 ± 0.042	1.049 ± 0.039
x1 = 0.6504	1.165 ± 0.042	1.072 ± 0.039
x1 = 0.7214	1.167 ± 0.042	1.079 ± 0.04
x1 = 0.7958	1.168 ± 0.042	1.079 ± 0.04
x1 = 0.8625	1.169 ± 0.042	1.081 ± 0.04
x1 = 0.9125	1.17 ± 0.043	1.086 ± 0.04
